From patent US8324189B2, “Use of zolendronate for the manufacture of a medicament for the treatment of bone metabolism diseases” (Novartis Pharmaceuticals Corporation, priority 2001, dated 2012)

What was measured:
[1] = system: subcutaneous prostate cancer cell line tumours; conditions: cited from earlier work
[2] = system: osteoclastic bone resorption; conditions: animal models, cited from earlier work
[3] = controlled trials in cancer patients: percentage of patients showing a skeletal related adverse event; format: in vivo, human
Method: The 4 mg dose of zoledronic acid has been determined to be clinically effective in several controlled trials in cancer patients, with placebo or the bisphosphonate pamidronate as comparator.

[4] = renal adverse events (increase in serum creatinine over baseline) in clinical studies; format: in vivo, human; conditions: for incidence of renal adverse events / incidence of renal adverse events (patients with event / patients): 4 mg
Method: The dose of 4 mg zoledronic acid infused over 15 minutes offers a safety advantage in terms of renal tolerability over the shorter infusion time of 5 minutes. The lower incidence of renal adverse events with zoledronic acid infused over 15 minutes versus 5 minutes is summarized below. Renal adverse events are defined as increases in a patient's serum creatinine over baseline, by ≦0.5 mg/dL if baseline <1.4 mg/dL, by ≦1 mg/dL if baseline […], by ≦2-fold irrespective of baseline value.

[5] = pharmacokinetic study of zoledronic acid in cancer patients with bone metastases (plasma concentration, urinary excretion); format: in vivo, human; conditions: for Cmax: human, plasma, intravenous
Method: FIG. 1. Plasma concentrations in patients after 4 mg zoledronic acid infused over 5 minutes and 15 minutes (mean data for n=5 patients in 4 mg/5 min group, n=7 patients in 4 mg/15 min group, study 503 [2]
• 1. The volume of 100 ml containing 4 mg zoledronic acid is infused over 15 minutes as an intravenous drip, which allows the drug to be administered at a uniform and precise rate. […] The pharmacokinetic parameters derived from the individual patients' plasma concentration versus time curves, and urinary excretion of drug are tabulated below.

[6] = renal adverse events (increase in serum creatinine over baseline) in clinical studies; format: in vivo, human
[7] = system: prostate cancer cell lines; conditions: in vitro treatment; cited from earlier work
[8] = Study 10, breast cancer patients
[9] = Study 10, multiple myeloma patients
[10] = Study 10, breast cancer and multiple myeloma patients, 5 minutes infusion
[11] = Study 10, breast cancer and multiple myeloma patients, 15 minutes infusion
[12] = Study 11, lung cancer patients, 5 minutes infusion
[13] = Study 11, lung cancer patients, 15 minutes infusion
[14] = Study 39, prostate cancer patients, 5 minutes infusion
[15] = Study 39, prostate cancer patients, 15 minutes infusion
[16] = 4 mg infused over 5 minutes, n = 5
[17] = 4 mg infused over 15 minutes, n = 7

O=P(O)(O)C(O)(Cn1ccnc1)P(=O)(O)O [zoledronic acid, 1-hydroxy-2-(imidazol-1-yl)ethane-1,1-diphosphonic acid]
tumour volume [1]: no significant decrease in tumour volume
impact on renal function ([2]; doses inhibiting bone resorption): no appreciable impact on renal function
inhibition of osteoclastic bone resorption versus earlier generation bisphosphonates ([2]; doses that do not affect bone formation and mineralization): inhibits osteoclastic bone resorption more effectively than earlier generation bisphosphonates
efficacy versus Aredia (disodium pamidronate) 90 mg dosed over 2-4 hours ([3]; 4 mg infused over approximately 15 minutes): comparable efficacy
Percentage of patients showing a skeletal related adverse event [3, 8]: 42%
Percentage of patients showing a skeletal related adverse event [3, 9]: 47%
Percentage of patients showing a skeletal related adverse event ([3]; Study 11, hypercalcemic lung cancer patients): 42%
Percentage of patients showing a skeletal related adverse event ([3]; Study 11, hypercalcemic patients with other solid tumors): 33%
Percentage of patients showing a skeletal related adverse event ([3]; Study 39, prostate cancer patients): 33%
efficacy over placebo in the treatment of bone metastases ([3]; double blind, placebo-controlled clinical study, prostate cancer patients): statistically significant efficacy benefit over placebo
renal safety versus 4 mg/5 minutes and higher zoledronic acid dose/15 minutes ([4]; 4 mg/15 minutes): improved renal safety
incidence of renal adverse events [4, 10]: 13.2%
incidence of renal adverse events (patients with event / patients) [4, 10]: 36/272 patients
incidence of renal adverse events [4, 11]: 8.8%
incidence of renal adverse events (patients with event / patients) [4, 11]: 24/272 patients
incidence of renal adverse events ([4]; Study 10, breast cancer and multiple myeloma patients, 15 minutes infusion, listed as Zoledronic acid): 8.8%
incidence of renal adverse events [4, 12]: 16.4%
incidence of renal adverse events (patients with event / patients) [4, 12]: 10/61 patients
incidence of renal adverse events [4, 13]: 10.9%
incidence of renal adverse events (patients with event / patients) [4, 13]: 18/165 patients
incidence of renal adverse events [4, 14]: 19.8%
incidence of renal adverse events (patients with event / patients) [4, 14]: 22/111 patients
incidence of renal adverse events [4, 15]: 15.2%
incidence of renal adverse events (patients with event / patients) [4, 15]: 14/78 patients
Differences in AUC, 15 minutes versus 5 minutes infusion ([5]; 4 mg): not significant
Differences in Ae, 15 minutes versus 5 minutes infusion ([5]; 4 mg): not significant
Differences in mean Cmax, 15 minutes versus 5 minutes infusion ([5]; 4 mg): statistically significant
AUC 0-24 h [5, 16]: 378 ± 116 ngxh/ml
Ae 0-24 h (amount of drug excreted in urine) [5, 16]: 38.7 ± 6.34 % of dose
AUC 0-24 h [5, 17]: 420 ± 218 ngxh/ml
Ae 0-24 h (amount of drug excreted in urine) [5, 17]: 37.4 ± 17.0 % of dose
Cmax ([5]; 4 mg, 4 mg infused over 5 minutes, n = 5, cancer patients with bone metastases): 403 ± 118 ng/mL
Cmax ([5]; 4 mg, 4 mg infused over 15 minutes, n = 7, cancer patients with bone metastases): 264 ± 86 ng/mL
renal safety versus higher doses of zoledronic acid, 8 mg and 16 mg ([6]; 4 mg infused over 15 minutes): improved renal safety
growth of prostate cancer cell lines [7]: significantly reduced the growth of the cell lines

NCCC(O)(P(=O)(O)O)P(=O)(O)O [pamidronate, disodium pamidronate]
Percentage of patients showing a skeletal related adverse event [3, 8]: 47%
Percentage of patients showing a skeletal related adverse event [3, 9]: 49%
renal tolerability (incidence of renal adverse events) ([6]; 90 mg infused over 2 hours): 8.2%
